These results are taken from US6406917B1, “Methods and compositions for the use of apurinic/apyrimidinic endonucleases” (Advanced Research And Technology Institute, priority 1996, dated 2002).

What all share (format): cell-based, human
The subject of assay [1] is HL-60 cells. As to the kind of experiment: RA-induced differentiation (morphology, CD11b, NBT reduction).
Assay [2] has as its system HL-60-bcl-2 cells. As to the kind of experiment: Viability of RA-induced granulocytes (trypan blue dye exclusion). As to conditions: HL-60+Lbcl2SN cells treated with RA, compared to parental HL-60 cells. On the procedure:
FIG. 10A and FIG. 10B: Enhanced viability of HL-60-bcl-2 granulocytes. HL60 and HL-60-bcl-2 cells were induced with RA (1 μmol/L) which was added at day 0. At the indicated days after RA treatment (FIG. 10A), cell number was determined using a hemocytometer chamber and (FIG. 10B) percentage of cell viability was determined by trypan blue dye exclusion. The indicated points represent the mean of triplicate experiments (▴) HL-60 wt; (◯) HL-60 Bcl2.
To determine whether cell differentiation and apoptosis were closely linked processes that could not be separated, the inventor over expressed the proto-oncogene bcl-2 in HL-60 cells to block apoptosis the 1.9 kB cDNA of bcl-2 was subcloned into the retroviral vector LXSN to produce Lbcl2SN. The ecotropic packaging cell line PE501 was transfected and used to transduce the amphotropic packaging cell line PA317. High titer clones of PA317+Lbcl2SN were selected for transduction of HL-60 cells to produce HL-60+Lbcl2SN. Several clones were screened by Northern blot analysis and one clone with high bcl-2 expression was chosen for study. […] These cells were assayed for programmed cell death using the TUNEL reaction to score individual cells and the diphenylamine assay to determine the total amount of DNA undergoing fragmentation. […] Thus myeloid cell differentiation and apoptosis are independent processes that can be separated.

The subject of assay [3] is HL-60-bcl-2 cells. The assay is described as follows: RA-induced differentiation (morphology, CD11b, NBT reduction).
For assay [4], the system named is HL-60-bcl-2 cells. As to the kind of experiment: Northern blot of APE mRNA after differentiation induction. Conditions: 10^-5 M RA, 1.25% DMSO or 100 nM PMA. The method, then:
(§1) FIG. 7A and FIG. 7B: Expression of APE in HL-60-bcl-2 cells. FIG. 7A, HL-60-bcl-2 cells at 0, 2, 4, and 6 days after treatment with 10^−5 M RA or 1.25% DMSO, Western blot (top) probed with an affinity purified polyclonal rabbit anti-APE antibody. Northern blots (middle and bottom) probed for the 1.6 Kb APE and GAPDH transcripts. FIG. 7B, HL-60-bcl-2 cells treated with 100 nM PMA.
(§2) To ascertain whether APE expression was associated with differentiation or programmed cell death, the inventor blocked apoptosis by over-expression of the proto-oncogene bcl-2 using HL-60 cells transduced with the retroviral construct LbcI2SN (Park et al, 1994). […] The apparent decrease in APE transcript expression after 6 days exposure to RA or DMSO results from loading differences as evidenced by the GAPDH Northern control blot (FIG. 7). […] Thus constitutive expression of bcl-2 inhibits the decrease in APE expression as well as programmed cell death normally observed with granulocytic or monocytic/macrophage induced differentiation of HL-60 cells.

Assay [5] relates to HL-60 cells. As to the kind of experiment: Western blot of APE protein expression after differentiation induction. The method, then: (§3) FIG. 6A and FIG. 6B: Expression of APE in HL-60 cells. FIG. 6A, HL-60 cells at 0, 2, 4, and 6 days after treatment with 10^−5 M RA or 1.25% DMSO, Western blot (top) probed with an affinity purified polyclonal rabbit anti-APE antibody which detects the 37,000 Daltons human APE. Northern blots (middle and bottom) probed for the 1.6 Kb APE mRNA and GAPDH transcripts. FIG. 6B, HL-60 cells treated with 100 nM PMA.
Western blot analysis was performed as has been previously described (Wilson et al., 1994; 1995, FIG. 16). Whole cell extracts were electrophoresed on a 12% SDS-PAGE and electroblotted onto 0.2 micron nitrocellulose. The filter was incubated in blocking buffer which contains 5% non-fat milk for 1 hour. Next, the antibody (affinity purified APE) was diluted to the appropriate concentration (1:100) and incubated with the filter overnight at 4° C. The filter was washed in 1×TBST and incubated in TBST containing 5% milk and cross-reacting proteins were detected using the Chemiluminescence Western Blotting Kit from Boehringer-Mannheim (Indianapolis, Ind.) as directed. Western blot analysis of HeLa cell (human) or NIH3T3 (mouse) cells using antibody produced in rabbits or chickens are shown in FIG. 16. The antibodies were affinity purified and only a single cross-reacting protein is visible in the human or mouse cells. […]

The subject of assay [6] is HL-60-bcl-2 cells. Described as above. As to conditions: 10^-5 M RA, 1.25% DMSO or 100 nM PMA, compared to parental HL-60. On the procedure:
as §1, §2

Assay [7] concerns HL-60 cells. The assay is described as follows: Northern blot of APE transcript after differentiation induction. On the procedure: as §3
To investigate possible changes in expression of the DNA repair enzyme APE in differenntiating myeloid cells, the inventor utilized Northern and Western blot analysis with the HL-60 myeloid leukemia cell line, which can be induced to terminally differentiate into mature granulocytes or monocyte/macrophage (Collins, 1987). […] To determine whether the decrease in APE expression was confined to granulocytic differentiation, HL-60 cells were induced down the monocyte/macrophage pathway with PMA.

Assay [8] has as its system HL-60 cells. As to the kind of experiment: APE expression on cytospun cells, rhodamine-labeled anti-APE staining. Conditions: for % rhodamine positive (APE): HL-60 + DMSO. On the procedure:
(§4) To determine if the cells undergoing apoptosis were also the cells downregulating APE, double labeling experiments were performed on a 50:50 mix of untreated and RA treated (6 days, 10^−5 M) HL-60 cells (FIG. 9A). Cytocentrifuge preparations were stained for 1) fragmented DNA using fluorescein-dUTP in the TUNEL assay (FIG. 9C) and 2) APE using polyclonal rabbit anti-APE with a rhodamine labeled goat anti-rabbit secondary antibody (FIG. 9B). Cells undergoing apoptosis fluoresce ‘green’ and cells expressing APE fluoresce ‘red’. […] Conversely, TUNEL negative cells, not undergoing apoptosis, stained strongly positive for APE. Thus, HL-60 cells undergoing apoptosis appear to lose expression of APE.
(§5) The inventor further characterized the temporal decline in APE expression to see if it was an early event in programmed cell death or if the decline coincided with fragmentation of DNA (TUNEL assay); the inventor assayed APE expression and DNA fragmentation on cytospun preparations of cells after exposure to DMSO. The expression of APE started to fall with fewer rhodamine positive cells after 2 days of DMSO while statistically significant evidence of fragmented DNA was not apparent until after 4-6 days (Table 7, FIG. 8). A similar pattern was observed, but not as rapid a loss of APE expression, after exposure to RA or PMA. Thus the decrease in APE expression associated with programmed cell death appears to be an early event occurring before the final pathologic consequences of DNA fragmentation in apoptosis.

Assay [9] relates to HL-60 cells. As to the kind of experiment: DNA fragmentation / apoptosis, fluorescein TUNEL assay. As to conditions: for % fluorescein positive (TUNEL): HL-60 + DMSO.
Excerpt: Over-expression of bcl-2 depresses the baseline apoptosis to less than 1% (FIG. 8). […] The high level expression of bcl-2 in HL-60-bcl-2 cells appears to be responsible for not only the block in apoptosis (Park et al., 1994), but also the failure to downregulate expression of APE with induction of differentiation. […] This leads to the conclusion that the decrease in expression of APE observed on Northern and Western blot (FIG. 6) in induced HL-60 cells is associated with programmed cell death.
as §4, §5

Setting [10] is: after 1 hour of TPA stimulation.
[11] abbreviates: arbitrary log scale 0 to 200, 18.5 U = doubling.

Each structure is given as a SMILES string.

`CC1=C(/C=C/C(C)=C/C=C/C(C)=C/C(=O)O)C(C)(C)CCC1` [RA, Retinoic Acid]: the “NBT (+), percentage of cells containing blue-black formazan deposits” value with HL-60 cells [1] (setting [10]) and in the assay on HL-60-bcl-2 cells [3] (setting [10]) was above 90% in each case. The “CD11b (+), relative mean fluorescence” value came out at 105.4 U in the assay on HL-60 cells [1] (setting [11]) and 107.9 U in the assay on HL-60-bcl-2 cells [3] (setting [11]). For the same compound, the “survival of mature granulocytes” value in the assay on HL-60-bcl-2 cells [2] is reported as “up to 40 days”.
Take `CCCCCCCCCCCCCC(=O)O[C@@H]1[C@@H](C)[C@@]2(O)[C@@H](C=C(CO)C[C@]3(O)C(=O)C(C)=C[C@@H]23)[C@@H]2C(C)(C)[C@]12OC(C)=O` [PMA]: the “APE mRNA expression (Northern blot)” value in the assay with HL-60-bcl-2 cells [4] is on record as “continuous expression”. Besides, the “APE protein expression (Western blot)” value is given as “decreased to a very low level” with HL-60 cells [5] (100 nM PMA, after two days exposure) and “continuous expression” in the assay with HL-60-bcl-2 cells [6]. For the same compound, in the assay with HL-60 cells [7] (100 nM PMA), the “APE transcript expression (Northern blot)” value is “Decreased expression”.
As to `C[S+](C)[O-]` [DMSO], the “% rhodamine positive (APE)” value was determined as 34% with HL-60 cells [8] (2 days) and 0% with HL-60 cells [8] (4 days). The “time after which expression of APE started to fall (fewer rhodamine positive cells)” value in the assay on HL-60 cells [8] (HL-60, DMSO) amounted to 2 days. The “% fluorescein positive (TUNEL)” value with HL-60 cells [9] (2 days) is 2.7%; in the assay on HL-60 cells [9] (4 days), 2.3%; in the assay with HL-60 cells [9] (6 days), 7%. In the assay on HL-60 cells [9] (HL-60, DMSO), the “time after which statistically significant evidence of fragmented DNA became apparent” value fell in the range of 4 to 6 days. Further, in the assay with HL-60-bcl-2 cells [4], the “APE mRNA expression (Northern blot)” value is on record as “similarly maintained”. For the same compound, the “APE protein expression (Western blot)” value in the assay with HL-60 cells [5] (10^-5 M RA or 1.25% DMSO, over 6 days, compared to ethanol treated controls) is reported as “nearly undectable”; with HL-60-bcl-2 cells [6], “continuous expression”. Besides, the “APE transcript expression (Northern blot)” value in the assay with HL-60 cells [7] (granulocytic induction with 10^-5 M RA or 1.25% DMSO, 0-6 days) is listed as “more rapid decrease to a lower level”.
